What follows are compounds tested against Axl (Homo sapiens (Human), UniProt P30530) (assay: Phospho-Akt in-cell Western assay (Axl-antibody cross-linking stimulation)). Conditions: inhibition of Axl activity, Hela cells, phospho-Akt readout; Table 1, formula (Ia1).
Format: cell-based
Procedure, shortened: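 HeLa cells on poly-L-lysine, starved 24 hrs with Axl/Fc, pre-treated with compound 1 hr at 37° C., then stimulated 5 min with Axl primary/secondary antibody cluster. Fixed cells probed for phospho-Akt by chemiluminescent in-cell Western; signal normalized to crystal violet cell number.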

Chain of Axl (P30530 26-894): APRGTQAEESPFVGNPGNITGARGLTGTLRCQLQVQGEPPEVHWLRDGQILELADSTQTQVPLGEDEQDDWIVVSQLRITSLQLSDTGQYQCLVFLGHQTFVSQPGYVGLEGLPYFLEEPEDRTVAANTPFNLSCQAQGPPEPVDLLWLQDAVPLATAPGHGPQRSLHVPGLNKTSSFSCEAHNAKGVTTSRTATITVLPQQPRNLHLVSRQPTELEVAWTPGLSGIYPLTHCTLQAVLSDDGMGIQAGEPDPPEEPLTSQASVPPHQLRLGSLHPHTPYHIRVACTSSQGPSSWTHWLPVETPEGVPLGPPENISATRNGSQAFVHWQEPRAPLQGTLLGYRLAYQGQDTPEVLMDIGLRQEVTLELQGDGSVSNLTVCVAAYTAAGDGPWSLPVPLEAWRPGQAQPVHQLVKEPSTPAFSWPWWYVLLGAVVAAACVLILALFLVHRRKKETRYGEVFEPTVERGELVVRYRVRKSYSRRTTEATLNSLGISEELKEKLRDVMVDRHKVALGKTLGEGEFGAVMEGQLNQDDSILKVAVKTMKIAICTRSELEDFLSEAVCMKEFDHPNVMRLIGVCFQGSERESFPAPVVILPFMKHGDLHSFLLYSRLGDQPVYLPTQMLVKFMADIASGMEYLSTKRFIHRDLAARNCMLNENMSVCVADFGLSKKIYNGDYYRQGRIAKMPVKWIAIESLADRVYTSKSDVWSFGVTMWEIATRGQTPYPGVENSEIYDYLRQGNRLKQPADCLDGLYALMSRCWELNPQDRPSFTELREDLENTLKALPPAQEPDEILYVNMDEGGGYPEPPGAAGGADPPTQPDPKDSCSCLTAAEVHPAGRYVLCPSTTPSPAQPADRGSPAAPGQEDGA

| Structure (SMILES) | IC50 |
| --- | --- |
| Nc1nc(Nc2ccc(OCCN3CCCC3)cc2)nn1-c1nc(Cl)nc2cc(Cl)sc12 [Compound 175, 1-(2,6-dichlorothieno[3,2-d]pyrimidin-4-yl)-N^3-(4-(2-pyrrolidin-1-ylethoxy)phenyl)-1H-1,2,4-triazole-3,5-diamine] | < 1 µM |
| Nc1nc(Nc2ccc(OCCN3CCCC3)cc2)nn1-c1nc(Cl)nc2sccc12 [Compound 176, 1-(2-chlorothieno[2,3-d]pyrimidin-4-yl)-N^3-(4-(2-pyrrolidin-1-ylethoxy)phenyl)-1H-1,2,4-triazole-3,5-diamine] | < 1 µM |
| Nc1nc(Nc2ccc(OCCN3CCCC3)cc2)nn1-c1nc(Cl)nc2ccsc12 [Compound 177, 1-(2-chlorothieno[3,2-d]pyrimidin-4-yl)-N^3-(4-(2-pyrrolidin-1-ylethoxy)phenyl)-1H-1,2,4-triazole-3,5-diamine] | < 1 µM |

Same assay, conditions: inhibition of Axl activity, Hela cells, phospho-Akt readout; Table 5, formula (Ia3)

| IC50 | Structure (SMILES) |
| --- | --- |
| > 20 µM | CCOC(=O)c1ccc(Nc2nc(N)n(-c3ccnc(Cl)c3)n2)cc1 [Compound 143, ethyl 4-(5-amino-1-(2-chloropyridin-4-yl)-1H-1,2,4-triazol-3-ylamino)benzoate] |
| > 20 µM | CC(=O)c1ccc(Nc2nc(N)n(-c3ccccc3F)n2)cc1 [Compound 147, 1-(4-(5-amino-1-(2-fluorophenyl)-1H-1,2,4-triazol-3-ylamino)phenyl)ethanone] |
| > 20 µM | Nc1nc(Nc2cccc(O)c2)nn1-c1ccccn1 [Compound 150, 3-(5-amino-1-(pyridin-2-yl)-1H-1,2,4-triazol-3-ylamino)phenol] |
| > 20 µM | Nc1nc(Nc2ccc(CCC(=O)N3CCCC3)cc2)nn1-c1cnc2ccccc2n1 [Compound 152, 3-(4-(5-amino-1-(quinoxalin-2-yl)-1H-1,2,4-triazol-3-ylamino)phenyl)-1-(pyrrolidin-1-yl)propan-1-one] |
| < 1 µM | COc1cc2ncnc(-n3nc(Nc4ccc(OC5CCCN(C)C5)cc4)nc3N)c2cc1OC (stereo not shown) [Compound 153, 1-(6,7-dimethoxyquinazolin-4-yl)-N^3-(4-(1-methylpiperidin-3-yloxy)phenyl)-1H-1,2,4-triazole-3,5-diamine] |
| < 1 µM | CN1CCCC(Oc2ccc(Nc3nc(N)n(-c4nccc5ccccc45)n3)cc2)C1 (stereo not shown) [Compound 155, 1-(isoquinolin-1-yl)-N^3-(4-(1-methylpiperidin-3-yloxy)phenyl)-1H-1,2,4-triazole-3,5-diamine] |
| < 1 µM | COc1cc2ncnc(-n3nc(Nc4ccc(N5CCOCC5)cc4)nc3N)c2cc1OC [Compound 158, 1-(6,7-dimethoxyquinazolin-4-yl)-N^3-(4-morpholinophenyl)-1H-1,2,4-triazole-3,5-diamine] |
| < 1 µM | COc1cc2ncnc(-n3nc(Nc4ccc(N5CCOCC5)c(Cl)c4)nc3N)c2cc1OC [Compound 159, N^3-(3-chloro-4-morpholinophenyl)-1-(6,7-dimethoxyquinazolin-4-yl)-1H-1,2,4-triazole-3,5-diamine] |
| < 1 µM | COc1cc2ncnc(-n3nc(Nc4ccc(N5CCOCC5)c(F)c4)nc3N)c2cc1OC [Compound 162, 1-(6,7-dimethoxyquinazolin-4-yl)-N^3-(3-fluoro-4-morpholinophenyl)-1H-1,2,4-triazole-3,5-diamine] |
| < 1 µM | CN(C)[C@@H]1CCN(c2ccc(Nc3nc(N)n(-c4nccc5ccccc45)n3)cc2)C1 [Compound 164, N^3-(4-((R)-3-(dimethylamino)pyrrolidin-1-yl)phenyl)-1-(isoquinolin-1-yl)-1H-1,2,4-triazole-3,5-diamine] |
| < 1 µM | CN(C)[C@H]1CCN(c2ccc(Nc3nc(N)n(-c4nccc5ccccc45)n3)cc2)C1 [Compound 165, N^3-(4-((S)-3-(dimethylamino)pyrrolidin-1-yl)phenyl)-1-(isoquinolin-1-yl)-1H-1,2,4-triazole-3,5-diamine] |
| < 1 µM | COc1cc2ncnc(-n3nc(Nc4ccc(C5CCN(C)CC5)cc4)nc3N)c2cc1OC [Compound 168, 1-(6,7-dimethoxyquinazolin-4-yl)-N^3-(4-(1-methylpiperidin-4-yl)phenyl)-1H-1,2,4-triazole-3,5-diamine] |
| < 1 µM | COc1cc2c(-n3nc(Nc4ccc(C5CCN(C)CC5)cc4)nc3N)ncnc2cc1O [Compound 169, 4-(5-amino-3-(4-(1-methylpiperidin-4-yl)phenylamino)-1H-1,2,4-triazol-1-yl)-6-methoxyquinazolin-7-ol] |

The remaining lines, values behind:

| Structure (SMILES) | IC50 |
| --- | --- |
| CC(=O)c1ccc(Nc2nc(N)n(-c3cnc4ccccc4n3)n2)cc1 [Compound 144, 1-(4-(5-amino-1-(quinoxalin-2-yl)-1H-1,2,4-triazol-3-ylamino)phenyl)ethanone] | > 20 µM |
| Nc1nc(Nc2ccc(C(=O)O)cc2)nn1-c1ccnc(N2CCC[C@H]2CN2CCCC2)c1 [Compound 146, (S)-4-(5-amino-1-(2-(2-(pyrrolidin-1-ylmethyl)pyrrolidin-1-yl)pyridin-4-yl)-1H-1,2,4-triazol-3-ylamino) benzoic acid] | > 20 µM |
| Nc1nc(Nc2cc(F)c(F)c(F)c2)nn1-c1ccccn1 [Compound 149, 1-(pyridin-2-yl)-N^3-(3,4,5-trifluorophenyl)-1H-1,2,4-triazole-3,5-diamine] | > 20 µM |
| Nc1nc(Nc2ccc(N3CCOCC3)c(F)c2)nn1-c1nccc2ccccc12 [Compound 161, N^3-(3-fluoro-4-morpholinophenyl)-1-(isoquinolin-1-yl)-1H-1,2,4-triazole-3,5-diamine] | < 1 µM |
| CN1CCN(Cc2ccc(Nc3nc(N)n(-c4nccc5ccccc45)n3)cc2)CC1 [Compound 163, 1-(isoquinolin-1-yl)-N^3-(4-((4-methylpiperazin-1-yl)methyl)phenyl)-1H-1,2,4-triazole-3,5-diamine] | < 1 µM |
| Nc1nc(Nc2ccc(-c3cnco3)cc2)nn1-c1nccc2ccccc12 [Compound 166, 1-(isoquinolin-1-yl)-N^3-(4-(oxazol-5-yl)phenyl)-1H-1,2,4-triazole-3,5-diamine] | > 20 µM |
| CN1CCC(c2ccc(Nc3nc(N)n(-c4nccc5ccccc45)n3)cc2)CC1 [Compound 167, 1-(isoquinolin-1-yl)-N^3-(4-(1-methylpiperidin-4-yl)phenyl)-1H-1,2,4-triazole-3,5-diamine] | < 1 µM |
| COc1cc2ncnc(-n3nc(Nc4ccc(N5CC[C@H](N(C)C)C5)cc4)nc3N)c2cc1OC [Compound 171, 1-(6,7-dimethoxyquinazolin-4-yl)-N^3-(4-((S)-3-(dimethylamino)pyrrolidin-1-yl)phenyl)-1H-1,2,4-triazole-3,5-diamine] | < 1 µM |
| COc1cc2ncnc(-n3nc(Nc4ccc(CN5CCN(C)CC5)cc4)nc3N)c2cc1OC [Compound 173, 1-(6,7-dimethoxyquinazolin-4-yl)-N^3-(4-((4-methylpiperazin-1-yl)methyl)phenyl)-1H-1,2,4-triazole-3,5-diamine] | < 1 µM |
| COc1cc2ccnc(-n3nc(Nc4ccc(C5CCN(C)CC5)cc4)nc3N)c2cc1OC [Compound 174, 1-(6,7-dimethoxyisoquinolin-1-yl)-N^3-(4-(1-methylpiperidin-4-yl)phenyl)-1H-1,2,4-triazole-3,5-diamine] | < 1 µM |

Same assay, conditions: inhibition of Axl activity, Hela cells, phospho-Akt readout; Table 6, formula (Ib3)

| Structure (SMILES) | IC50 |
| --- | --- |
| Nc1nc(Nc2ccc(N3CCOCC3)cc2)n(-c2nccc3ccccc23)n1 [Compound 157, 1-(isoquinolin-1-yl)-N^5-(4-morpholinophenyl)-1H-1,2,4-triazole-3,5-diamine] | > 20 µM |

Same assay, conditions: inhibition of Axl activity, phospho-Akt in-cell Western assay

| IC50 | Structure (SMILES) |
| --- | --- |
| < 1 µM | Nc1nc(Nc2ccc(N3CCN([C@H]4C[C@@H]5CC[C@H]4C5)CC3)cc2)nn1-c1nc(Cl)nc2ccsc12 [Compound 179, 1-(2-chlorothieno[3,2-d]pyrimidin-4-yl)-N^3-(4-(4-((1S,2S,4R)-bicyclo[2.2.1]heptan-2-yl)-piperazin-1-yl)phenyl)-1H-1,2,4-triazole-3,5-diamine] |
| < 1 µM | COc1cc2cnc(-n3nc(Nc4ccc(N5CCN(C)CC5)cc4)nc3N)nc2cc1OC [Compound 180, 1-(6,7-dimethoxyquinazolin-2-yl)-N^3-(4-(4-methylpiperazin-1-yl)phenyl)-1H-1,2,4-triazole-3,5-diamine] |
| < 1 µM | Nc1nc(Nc2ccc(N3CCN(C4CC5CCC4C5)CC3)cc2)nn1-c1ncnc2c1sc1ncccc12 (stereo not shown) [Compound 184, 1-(pyrido[2,3-b]pyrimido[4,5-d]thiophene-4-yl)-N^3-(4-(4-(bicyclo[2.2.1]heptan-2-yl)-piperazin-1-yl)phenyl)-1H-1,2,4-triazole-3,5-diamine] |
| > 20 µM | Nc1nc(Nc2ccc(N3CCN(C4CC5CCC4C5)CC3)cc2)nn1-c1ncnc2cc(-c3ccc(Cl)cc3)sc12 (stereo not shown) [Compound 186, 1-(6-(4-chlorophenyl)thieno[3,2-d]pyrimidin-4-yl)-N^3-(4-(4-(bicyclo[2.2.1]heptan-2-yl)-piperazin-1-yl)phenyl)-1H-1,2,4-triazole-3,5-diamine] |

The next lines start with the compound.

| Structure (SMILES) | IC50 |
| --- | --- |
| COc1cc2cnc(-n3nc(Nc4ccc(N5CCN(C6CCCCC6)CC5)c(F)c4)nc3N)nc2cc1OC [Compound 181, 1-(6,7-dimethoxyquinazolin-2-yl)-N^3-(3-fluoro-4-(4-cyclohexylpiperazin-1-yl)phenyl)-1H-1,2,4-triazole-3,5-diamine] | < 1 µM |
| Nc1nc(Nc2ccc(N3CCN(C4CC5CCC4C5)CC3)cc2)nn1-c1ncnc2scc(-c3cccs3)c12 (stereo not shown) [Compound 185, 1-(5-(thiophen-2-yl)thieno[2,3-d]pyrimidin-4-yl)-N^3-(4-(4-(bicyclo[2.2.1]heptan-2-yl)-piperazin-1-yl)phenyl)-1H-1,2,4-triazole-3,5-diamine] | > 20 µM |
| CC(C)(C)c1cc2ncnc(-n3nc(Nc4ccc(N5CCN(C6CC7CCC6C7)CC5)cc4)nc3N)c2s1 (stereo not shown) [Compound 187, 1-(6-(1,1-dimethylethyl)thieno[3,2-d]pyrimidin-4-yl)-N^3-(4-(4-(bicyclo[2.2.1]heptan-2-yl)-piperazin-1-yl)phenyl)-1H-1,2,4-triazole-3,5-diamine] | < 1 µM |
